The assay addresses 5-lipoxygenase (Rattus norvegicus). As to the kind of experiment: 5-LOX enzyme assay was carried out with some modifications of ferric oxidation of xylenol orange (FOX) assay, which is based on the complex formation of Fe3+/ xylenol orange with absorption at visible light. Conditions: pH 7.4.

Regarding `Oc1ccc(Nc2nc(-c3ccc(Br)cc3)cs2)cc1` [N-aryl-4-aryl-1,3-thiazole-2-amine, 4], the IC50 came to 0.082 µM.
`Nc1ccc(Nc2nc(-c3ccc(F)cc3)cs2)cc1` [N-aryl-4-aryl-1,3-thiazole-2-amine, 25] returned an IC50 of 0.105 µM.
Under `Oc1ccc(Nc2nc(-c3ccc(F)cc3F)cs2)cc1` [N-aryl-4-aryl-1,3-thiazole-2-amine, 12] stands 0.085 µM.
`Nc1ccc(Nc2nc(-c3ccc([N+](=O)[O-])cc3)cs2)cc1` [N-aryl-4-aryl-1,3-thiazole-2-amine, 28] returned an IC50 of 0.092 µM.
Molecule `Nc1ccc(Nc2nc(-c3ccc(F)cc3F)cs2)cc1` [N-aryl-4-aryl-1,3-thiazole-2-amine, 32] yielded an IC50 of 0.07 µM.
`Oc1ccc(Nc2nc(-c3cccc(F)c3)cs2)cc1` [N-aryl-4-aryl-1,3-thiazole-2-amine, 8]: the midpoint of inhibition, the IC50, lay at 0.065 µM.
`Nc1ccc(Nc2nc(-c3ccc(Br)cc3)cs2)cc1` [N-aryl-4-aryl-1,3-thiazole-2-amine, 26] yielded an IC50 of 0.201 µM.
Under `Oc1ccc(Nc2nc(-c3cc(Cl)ccc3Cl)cs2)cc1` [N-aryl-4-aryl-1,3-thiazole-2-amine, 11] stands 0.092 µM; under `Cc1cc(Nc2nc(-c3ccc(F)cc3)cs2)cc(Cl)c1O` [N-aryl-4-aryl-1,3-thiazole-2-amine, 15], 0.063 µM; under `Nc1ccccc1Nc1nc(-c2ccc(Cl)cc2)cs1` [N-aryl-4-aryl-1,3-thiazole-2-amine, 29], 0.421 µM.
Under `Oc1ccc(Nc2nc(-c3ccccc3F)cs2)cc1` [N-aryl-4-aryl-1,3-thiazole-2-amine, 7] stands 0.081 µM; under `Nc1ccc(Nc2nc(-c3ccccc3)cs2)cc1` [N-aryl-4-aryl-1,3-thiazole-2-amine, 24], 0.12 µM.
Under `O=[N+]([O-])c1ccc(-c2csc(Nc3ccc(O)cc3)n2)cc1` [N-aryl-4-aryl-1,3-thiazole-2-amine, 6] stands 0.025 µM; under `Cc1cc(Nc2nc(-c3ccc(F)cc3)cs2)c(C)cc1O` [N-aryl-4-aryl-1,3-thiazole-2-amine, 17], 0.104 µM.
In the case of `Cc1cc(Nc2nc(-c3ccc(Cl)cc3)cs2)cc(C)c1O` [N-aryl-4-aryl-1,3-thiazole-2-amine, 14], the IC50 amounted to 0.127 µM.
With `Oc1c(Cl)cc(Nc2nc(-c3ccc(F)cc3)cs2)cc1Cl` [N-aryl-4-aryl-1,3-thiazole-2-amine, 16], inhibition was half-maximal at 0.093 µM (IC50). The IC50 values of the last two molecules are within 1.5-fold of each other.
Under `Oc1c(Cl)cc(Nc2nc(-c3ccc(Cl)cc3)cs2)cc1Cl` [N-aryl-4-aryl-1,3-thiazole-2-amine, 13] stands 0.146 µM.
Under `Nc1ccc(Nc2nc(-c3cc(Cl)ccc3Cl)cs2)cc1` [N-aryl-4-aryl-1,3-thiazole-2-amine, 31] stands 0.06 µM.

The values are drawn from BindingDB's records for doi:10.1111/j.1747-0285.2012.01371.x (Korea Research Institute of Chemical Technology, 2012).
